This is an account of results in patent US5302399A, “Slow-releasing pharmaceuticals prepared with alginic acid” (Snow Brand Milk Products Co., Ltd., priority 1988, dated 1994).

A short description of one data set: clinical. The arrangement: species or system healthy human adults. The note with it: in vivo, po.
A further data set is described as follows: in vivo. The note with it: dog, po. Set-up: species or system Male beagle dogs. An excerpt:
Water was given ad libitum.
Water was given ad libitum during the test period.
In this test, alginic acid gel beads prepared using the low viscosity alginic acid gel beads (IL2, Kimizu Chemicals) were used.

Consider `CC(C)NCC(O)COc1cccc2[nH]ccc12` (stereo not shown) [Pindolol powder, pindolol], for which, in “clinical” (human), the MRT stood at 3.82 ± 0.32 h and the Tmax was around 1 h. In the data set “clinical”, this compound returned a VRT of 7.44 ± 0.54 h^2. In the data set “in vivo” (2.5 mg/kg), the area under the curve (AUC) at 6 h was determined as 238 ng·h/mL and the MRT at 6 h is 1.74 h. In “in vivo” (5 mg/kg), this compound yielded an AUC at 12 h of 311 ng·h/mL and an MRT at 12 h of 1.98 h.

As a reminder, the MRT is the average time that molecules of a dose stay in the body. As usually defined, the Tmax is the time at which the peak concentration occurs. Broadly, the AUC is the area under the concentration-time curve, a measure of exposure. The low end stands for low exposure, the high end for high exposure.
